Source: paper PMC11308618, “Determinants of interactions of a novel next-generation gabapentinoid NVA1309 and mirogabalin with the Cavα2δ-1 subunit” (Molecular Brain, 2024)

Tests used:
Cavα2δ-1 [1] = target: T1, Cavα2δ-1; assay: SPR (Biacore) on immobilized peptide; assay type: binding, Oryctolagus cuniculus
T1 construct: gene CACNA2D1; chemically synthesized peptide surrounding the K615 locus ([…]; peptide P3)

Cavα2δ-1 [2] = system: T1, Cavα2δ-1; assay: SPR (Biacore) on immobilized peptide; also […] lowers Cav2.[…] current in tsA201 cells, lost with R243A or K615A Cavα[…]δ-1; assay type: binding, Oryctolagus cuniculus

Compound | Kd (Cavα2δ-1 [1]) | Kd (Cavα2δ-1 [2])
CCC1=C[C@@H]2[C@H](C1)C[C@]2(CN)Cc1nnn[nH]1 [NVA1309] | 273 ± 101 µM | 
CCC1=C[C@@H]2[C@H](C1)C[C@]2(CN)CC(=O)O [mirogabalin] |  | 161 ± 60 µM
